According to US8629102B2, “3-hydroxyisothiazole 1-oxide derivatives” (Mochida Pharmaceutical Co., Ltd., priority 2011, dated 2014):

The compounds below were run against T1, GPR40 of human origin (Homo sapiens, UniProt O14842) (assay: Agonist action on GPR40 of human origin (intracellular Ca2+ change)). Conditions: CHO cell strain stably expressing GPR40 of human origin; change in Ca2+ concentration, fluorescent calcium indicator.
T1 construct: expressed in transfected cells
Format: cell-based
Procedure: Pharmacological Test Example 1: Agonist Action on GPR40 of Human Origin
A CHO cell strain stably expressing GPR40 of human origin was used to determine the agonist action of a subject compound. This cell strain was seeded in a clear bottom 96 well plate at 4×10^4 cells/100 pt/well. The cell strain iswas cultured in a CO2 incubator overnight using a Ham's F-12 medium containing a 10% fetal bovine serum, 100 U/mL penicillin, 0.1 mg/mL streptomycin, and 400 μg/mL Geneticin. Calcium 4 Assay Kit (Molecular Devices) was used as a fluorescent calcium indicator. One mL of 77 mg/mL probenecid (Invitrogen) was added to 100 mL of a calcium indicator solution to prepare a solution (loading solution) mixed with a 20 mM HEPES-containing Hanks' balanced salt solution (HBSS) in equal proportions. To the cells from which the culture solution is removed, 200 μl of the loading solution was added, and the cells were cultured in a CO2 incubator for 1 hour. The subject compound was diluted with a 20 mM HEPES-containing HBSS and was added to the cells by 50 μL, and the change in the Ca^2+ concentration was measured with an intracellular ion analyzer. The EC50 value of the subject compound was calculated using the dose-response curve of fluorescence intensity variation.

T1 sequence (O14842 whole entry): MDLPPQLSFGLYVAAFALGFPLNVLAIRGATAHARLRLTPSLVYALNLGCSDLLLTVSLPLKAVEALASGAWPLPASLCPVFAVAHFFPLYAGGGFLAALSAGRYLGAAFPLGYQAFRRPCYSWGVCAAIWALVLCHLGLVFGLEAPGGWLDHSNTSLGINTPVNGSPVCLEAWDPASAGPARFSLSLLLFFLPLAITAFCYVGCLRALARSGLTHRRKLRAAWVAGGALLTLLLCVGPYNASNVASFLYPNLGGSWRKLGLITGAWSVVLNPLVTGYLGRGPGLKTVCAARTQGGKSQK

| EC50 [nM] | Compound |
| --- | --- |
| < 300 | Cc1ccc(F)cc1-c1cccc2c1CC[C@H]2Oc1ccc(-c2cc(O)n[s+]2[O-])cc1 (stereo partly drawn) [Example 41, 5-(4-(((R)-4-(5-fluoro-2-methylphenyl)-2,3-dihydro-1H-inden-1-yl)oxy)phenyl)-3-hydroxyisothiazole 1-oxide] |
| < 300 | N#Cc1cccc(Oc2cccc3c2CC[C@H]3Oc2ccc(-c3cc(O)n[s+]3[O-])cc2)c1 (stereo partly drawn) [Example 86, 3-(((1R)-1-(4-(3-hydroxy-1-oxidoisothiazol-5-yl)phenoxy)-2,3-dihydro-1H-inden-4-yl)oxy)benzonitrile] |
| 300 to 3000 | C=Cc1ccc(-c2cccc3c2CC[C@H]3Oc2ccc(-c3cc(O)n[s+]3[O-])cc2)cc1 (stereo partly drawn) [Example 25, 5-(4-(((R)-4-(4-vinylphenyl)-2,3-dihydro-1H-inden-1-yl)oxy)phenyl)-3-hydroxyisothiazole 1-oxide] |
| < 300 | CCCc1ccc(-c2cccc3c2CC[C@H]3Oc2ccc(-c3cc(O)n[s+]3[O-])cc2)cc1 (stereo partly drawn) [Example 22, 5-(4-(((R)-4-(4-n-propylphenyl)-2,3-dihydro-1H-inden-1-yl)oxy)phenyl)-3-hydroxyisothiazole 1-oxide] |
| 300 to 3000 | Cc1ccc(-c2cccc3c2CC[C@H]3Oc2ccc(-c3cc(O)n[s+]3[O-])cc2)c2ccccc12 (stereo partly drawn) [Example 50, 5-(4-(((R)-4-(4-methylnaphthalen-1-yl)-2,3-dihydro-1H-inden-1-yl)oxy)phenyl)-3-hydroxyisothiazole 1-oxide] |
| < 300 | [O-][s+]1nc(O)cc1-c1ccc(O[C@@H]2CCc3c(-c4ccccc4OCc4ccccc4)cccc32)cc1 (stereo partly drawn) [Example 42, 5-(4-(((R)-4-(2-benzyloxyphenyl)-2,3-dihydro-1H-inden-1-yl)oxy)phenyl)-3-hydroxyisothiazole 1-oxide] |
| 300 to 3000 | CCOc1cccc(-c2cccc3c2CC[C@H]3Oc2ccc(-c3cc(O)n[s+]3[O-])cc2)c1 (stereo partly drawn) [Example 32, 5-(4-(((R)-4-(3-ethoxyphenyl)-2,3-dihydro-1H-inden-1-yl)oxy)phenyl)-3-hydroxyisothiazole 1-oxide] |
| < 300 | Cc1ccc(-c2cccc3c2CC[C@H]3Oc2ccc(-c3cc(O)n[s+]3[O-])cc2)c(C)c1 (stereo partly drawn) [Example 36, 5-(4-(((R)-4-(2,4-dimethylphenyl)-2,3-dihydro-1H-inden-1-yl)oxy)phenyl)-3-hydroxyisothiazole 1-oxide] |
| < 300 | [O-][s+]1nc(O)cc1-c1ccc(O[C@@H]2CCc3c(-c4ccc(Cl)s4)cccc32)cc1 (stereo partly drawn) [Example 81, 5-(4-(((R)-4-(5-chlorothiophen-2-yl)-2,3-dihydro-1H-inden-1-yl)oxy)phenyl)-3-hydroxyisothiazole 1-oxide] |
| < 300 | Cc1ccccc1Oc1cccc2c1CC[C@H]2Oc1ccc(-c2cc(O)n[s+]2[O-])cc1 (stereo partly drawn) [Example 95, 3-hydroxy-5-(4-(((R)-4-(o-tolyloxy)-2,3-dihydro-1H-inden-1-yl)oxy)phenyl)isothiazole 1-oxide] |
| < 300 | Cc1ccc(-c2cccc3c2CC[C@H]3Oc2ccc(-c3cc(O)n[s+]3[O-])cc2)cc1 (stereo partly drawn) [Example 5, 3-hydroxy-5-(4-(((1R)-4-(p-tolyl)-2,3-dihydro-1H-inden-1-yl)oxy)phenyl)isothiazole 1-oxide] |
| < 300 | Cc1cc(OCc2ccccc2)ccc1-c1cccc2c1CC[C@H]2Oc1ccc(-c2cc(O)n[s+]2[O-])cc1 (stereo partly drawn) [Example 47, 5-(4-(((R)-4-(4-benzyloxy-2-methylphenyl)-2,3-dihydro-1H-inden-1-yl)oxy)phenyl)-3-hydroxyisothiazole 1-oxide] |
| < 300 | [O-][s+]1nc(O)cc1-c1ccc(O[C@@H]2CCc3c(-c4ccsc4)cccc32)cc1 (stereo partly drawn) [Example 82, 3-hydroxy-5-(4-(((R)-4-(thiophen-3-yl)-2,3-dihydro-1H-inden-1-yl)oxy)phenyl)isothiazole 1-oxide] |
| < 300 | Cc1nc(OCCCS(C)(=O)=O)ccc1Oc1cccc2c1CC[C@H]2Oc1ccc(-c2cc(O)n[s+]2[O-])cc1 (stereo partly drawn) [Example 117, 3-hydroxy-5-(4-(((R)-4-((2-methyl-6-(3-(methylsulfonyl)propoxy)pyridin-3-yl)oxy)-2,3-dihydro-1H-inden-1-yl)oxy)phenyl)isothiazole 1-oxide] |
| < 300 | COc1cncc(Oc2cccc3c2CC[C@H]3Oc2ccc(-c3cc(O)n[s+]3[O-])cc2)c1 (stereo partly drawn) [Example 127, 3-hydroxy-5-(4-(((R)-4-((3-methoxypyridin-5-yl)oxy)-2,3-dihydro-1H-inden-1-yl)oxy)phenyl)isothiazole 1-oxide] |
| < 300 | COCCN(C)C(=O)c1ccc(Oc2cccc3c2CC[C@H]3Oc2ccc(-c3cc(O)n[s+]3[O-])cc2)cc1 (stereo partly drawn) [Example 146, 4-(((R)-1-(4-(3-hydroxy-1-oxidoisothiazol-5-yl)phenoxy)-2,3-dihydro-1H-inden-4-yl)oxy)-N-(2-methoxyethyl)-N-methylbenzamide] |
| < 300 | [O-][s+]1nc(O)cc1-c1ccc(O[C@@H]2CCc3c(-c4cccc(F)c4)cccc32)cc1 (stereo partly drawn) [Example 29, 5-(4-(((R)-4-(3-fluorophenyl)-2,3-dihydro-1H-inden-1-yl)oxy)phenyl)-3-hydroxyisothiazole 1-oxide] |
| 300 to 3000 | CCOc1ccc(-c2cccc3c2CC[C@H]3Oc2ccc(-c3cc(O)n[s+]3[O-])cc2)cc1F (stereo partly drawn) [Example 44, 5-(4-(((R)-4-(4-ethoxy-3-fluorophenyl)-2,3-dihydro-1H-inden-1-yl)oxy)phenyl)-3-hydroxyisothiazole 1-oxide] |
| 300 to 3000 | CC(C)c1ccc(-c2cccc3c2CC[C@H]3Oc2ccc(-c3cc(O)n[s+]3[O-])cc2)cc1 (single isomer, unassigned) [Example 26] |
| < 300 | COc1cccc(Oc2cccc3c2CC[C@H]3Oc2ccc(-c3cc(O)n[s+]3[O-])cc2)c1 (stereo partly drawn) [Example 91, 3-hydroxy-5-(4-(((R)-4-(3-methoxyphenoxy)-2,3-dihydro-1H-inden-1-yl)oxy)phenyl)isothiazole 1-oxide] |
| 300 to 3000 | [O-][s+]1nc(O)cc1-c1ccc(OCC2=CC3(CCCCC3)CCC2)cc1 (stereo not shown) [Example 120, 3-hydroxy-5-(4-(spiro[5.5]undec-1-en-2-ylmethoxy)phenyl)isothiazole 1-oxide] |
| < 300 | N#Cc1ccc(Oc2cccc3c2OCC3Oc2ccc(-c3cc(O)n[s+]3[O-])cc2)cc1 (single isomer, unassigned) [Example 144-a, 4-((3-(4-(3-hydroxy-1-oxidoisothiazol-5-yl)phenoxy)-2,3-dihydrobenzofuran-7-yl)oxy)benzonitrile] |
| < 300 | [O-][s+]1nc(O)cc1-c1ccc(O[C@@H]2CCc3c(-c4cc(F)ccc4C(F)(F)F)cccc32)cc1 (stereo partly drawn) [Example 66, 5-(4-(((R)-4-(5-fluoro-2-trifluoromethylphenyl)-2,3-dihydro-1H-inden-1-yl)oxy)phenyl)-3-hydroxyisothiazole 1-oxide] |
| < 300 | CCOc1ccc(Cl)cc1-c1cccc2c1CC[C@H]2Oc1ccc(-c2cc(O)n[s+]2[O-])cc1 (stereo partly drawn) [Example 58, 5-(4-(((R)-4-(5-chloro-2-ethoxyphenyl)-2,3-dihydro-1H-inden-1-yl)oxy)phenyl)-3-hydroxyisothiazole 1-oxide] |
| < 300 | COc1cccc(Oc2cccc3c2CC[C@H]3Oc2ccc(-c3cc(O)n[s+]3[O-])cc2)n1 (stereo partly drawn) [Example 149, 3-hydroxy-5-(4-(((R)-4-((6-methoxypyridin-2-yl)oxy)-2,3-dihydro-1H-inden-1-yl)oxy)phenyl)isothiazole 1-oxide] |
| < 300 | COc1cc(C)c(Oc2cccc3c2CC[C@H]3Oc2ccc(-c3cc(O)n[s+]3[O-])cc2)cn1 (stereo partly drawn) [Example 105, 3-hydroxy-5-(4-(((R)-4-((6-methoxy-4-methylpyridin-3-yl)oxy)-2,3-dihydro-1H-inden-1-yl)oxy)phenyl)isothiazole 1-oxide] |
| < 300 | CS(=O)(=O)c1ccc(Oc2cccc3c2CC[C@H]3Oc2ccc(-c3cc(O)n[s+]3[O-])cc2)cc1 (stereo partly drawn) [Example 107, 3-hydroxy-5-(4-(((R)-4-(4-(methylsulfonyl)phenoxy)-2,3-dihydro-1H-inden-1-yl)oxy)phenyl)isothiazole 1-oxide] |
| < 300 | [O-][s+]1nc(O)cc1-c1ccc(O[C@@H]2CCc3c(Oc4cnc5ccccc5c4)cccc32)cc1 (stereo partly drawn) [Example 104, 3-hydroxy-5-(4-(((R)-4-(quinolin-3-yloxy)-2,3-dihydro-1H-inden-1-yl)oxy)phenyl)isothiazole 1-oxide] |
| < 300 | CS(=O)(=O)CCCOc1ccc(Oc2cccc3c2CC[C@H]3Oc2ccc(-c3cc(O)n[s+]3[O-])cc2)cn1 (stereo partly drawn) [Example 116, 3-hydroxy-5-(4-(((R)-4-((6-(3-(methylsulfonyl)propoxy)pyridin-3-yl)oxy)-2,3-dihydro-1H-inden-1-yl)oxy)phenyl)isothiazole 1-oxide] |
| < 300 | N#Cc1ccc(Oc2cccc3c2OCC3Oc2ccc(-c3cc(O)n[s+]3[O-])cc2)cc1 (stereo not shown) [Example 138, 4-((3-(4-(3-hydroxy-1-oxidoisothiazol-5-yl)phenoxy)-2,3-dihydrobenzofuran-7-yl)oxy)benzonitrile] |

| Compound | EC50 [nM] |
| --- | --- |
| [O-][s+]1nc(O)cc1-c1ccc(OCc2ccc(CN3CCC4(C=Cc5ccccc54)CC3)cc2)cc1 (stereo not shown) [Example 123, 3-hydroxy-5-(4-((4-(spiro[inden-1,4′-piperidin]-1′-ylmethyl)benzyl)oxy)phenyl)isothiazole 1-oxide] | 300 to 3000 |
